Measured values taken from patent US20120003308A1, “Pharmaceutical Composition Comprising Aliskiren” (priority 2009, published 2012).

Assay: Bioequivalence study of fixed combination versus free combination, single dose, crossover
Design: species or system human
Settings: in vivo
Protocol: Pharmacokinetic measurements were performed on blood collected from each subject. […] The PK parameters were determined in plasma, using non-compartmental methods.

Row | Compound | intra-subject coefficient of variation (CV) for AUC0-inf of aliskiren | intra-subject coefficient of variation (CV) for AUC0-tlast of aliskiren | intra-subject coefficient of variation (CV) for Cmax of aliskiren | intra-subject CV for AUC0-flast of valsartan | intra-subject CV for AUC0-inf of valsartan | intra-subject CV for Cmax of valsartan
1 | COCCCOc1cc(C[C@@H](C[C@H](N)[C@@H](O)C[C@H](C(=O)NCC(C)(C)C(N)=O)C(C)C)C(C)C)ccc1OC [Aliskiren, 2(S),4(S),5(S),7(S)—N-(3-amino-2,2-dimethyl-3-oxopropyl)-2,7-di(1-methylethyl)-4-hydroxy-5-amino-8-[4-methoxy-3-(3-methoxy-propoxy)phenyl]-octanamide] | 33.19% | 33.98% | 51.90% | – | – | –
2 | CCCCC(=O)N(Cc1ccc(-c2ccccc2-c2nnn[nH]2)cc1)[C@H](C(=O)O)C(C)C [Valsartan] | – | – | – | 28.56% | 28.33% | 40.37%
